Legend:
intraocular pressure [1] = experiment: Experiment 1: ocular hypotensive effect (Δ IOP) after instillation of a 0.1% solution into the rabbit eye; assay type: in vivo, Male Japanese White rabbits; conditions: 0.1% solution instilled into left eye, vehicle-corrected, mean of three or four samples
Protocol: (§1) Male Japanese White rabbits weighing about 3.0 kg were lightly held and the intraocular pressure was measured by Applanation Pneumatonograph after corneal anesthesia with instillation of 0.4% oxybuprocaine hydrochloride solution.
(§2) A test compound was dissolved at 0.1% in vehicle which contains 2.5% glycerol and 2.0% polysorbate 80 in sterile purified water. The test solution at volume of […] was instilled into the left eye of each rabbit and the right eye remained untreated. As a control, the vehicle was instilled into the left eye in a control group. Δ IOP (mmHg), which is an index of ocular hypotensive effect, were calculated using below formula. Δ IOP = (IOPt - IOP0) - (IOPvt - IOPv0) [formula] IOPt : IOP at t hr. after instillation of a test solution IOPvt : IOP at t hr. after instillation of vehicle IOP0 : IOP just before instillation of a test solution IOPv0 : IOP just before instillation of vehicle
For example, the maximum reduction of IOP after instillation of the compounds shown as examples 1, 1(a), 1(b), 2, 3, 4 and 5 hereinafter were 6.0, 5.7, 5.4, 4.0, 4.7, 6.7 and 9.8 mmHg, respectively. And when the compound of the present invention was instilled, bulbar and palpebral conjunctival hyperemia could hardly be observed.

intraocular pressure [2] = experiment: Experiment 2: ocular hypotensive effect (Δ IOP) after instillation of a 0.02% solution, comparison with compared compounds; assay type: in vivo, Male Japanese White rabbits; conditions: rabbit; for Ocular Hypotensive Effects on Intraocular Pressure (Δ IOP), Time after Administration 0 hr.: 0 hr. after administration (baseline); for Ocular Hypotensive Effects on Intraocular Pressure (Δ IOP), Time after Administration 1 hr.: 1 hr. after administration; for Ocular Hypotensive Effects on Intraocular Pressure (Δ IOP), Time after Administration 2 hr.: 2 hr. after administration; for Ocular Hypotensive Effects on Intraocular Pressure (Δ IOP), Time after Administration 4 hr.: 4 hr. after administration; for Ocular Hypotensive Effects on Intraocular Pressure (Δ IOP), Time after Administration 6 hr.: 6 hr. after administration; for initial elevation of the intraocular pressure: side effect
Protocol: as §1, §2
Further, the compounds of the present invention were compared with the compounds shown concretely in related arts hereinbefore described. The compounds have chemical structures quite similar to the compounds of the present invention were selected as compared compounds. 0.02% solutions of the compounds of the present invention were compared with the compared compounds, because the 0.02% solution is close to concentration used actually.
The compounds of the present invention and compared compounds were dissolved in vehicle at 0.02%, and Δ IOPs (mmHg) after instillation of these solution, which are the index of ocular hypotensive effects, were calculated in the same way as the experiment 1.
The graphs of the results shown in the Table 1 and Table 2 were Figure 1 and Figure 2.

duration of the initial elevation of intraocular pressure (intraocular pressure [2])	Compound	maximum reduction of IOP after instillation (intraocular pressure [1])	time after administration at which the ocular hypotensive effect appeared (intraocular pressure [2])	time after administration for which the activity was maintained (intraocular pressure [2])	Ocular Hypotensive Effects on Intraocular Pressure (Δ IOP), Time after Administration 0 hr. (intraocular pressure [2])	Ocular Hypotensive Effects on Intraocular Pressure (Δ IOP), Time after Administration 1 hr. (intraocular pressure [2])	Ocular Hypotensive Effects on Intraocular Pressure (Δ IOP), Time after Administration 2 hr. (intraocular pressure [2])	Ocular Hypotensive Effects on Intraocular Pressure (Δ IOP), Time after Administration 4 hr. (intraocular pressure [2])	activity (reduction of intraocular pressure) reached at 4 hrs. after administration (intraocular pressure [2]; 4 hrs. after administration, printed as magnitude)	Ocular Hypotensive Effects on Intraocular Pressure (Δ IOP), Time after Administration 6 hr. (intraocular pressure [2])	initial elevation of the intraocular pressure (intraocular pressure [2])
–	CCCCC[C@H](O)CC[C@@H]1[C@@H](C/C=C\CCCC(=O)OC2CCCCC2)[C@H](O)C[C@H]1O [Example 1, 13,14-dihydro-PGF2β cyclohexyl ester]	6.0 mmHg	1 h	6 h	0 mmHg	-2.0 mmHg	-2.3 mmHg	-6.6 mmHg	6.6 mmHg	-1.8 mmHg	did not show initial elevation
–	CCCCC[C@H](O)CC[C@@H]1[C@@H](C/C=C\CCCC(=O)Oc2ccccc2)[C@H](O)C[C@H]1O [Example 1(a), 13,14-dihydro-PGF2β phenyl ester]	5.7 mmHg	–	–	–	–	–	–	–	–	–
–	CCCCC(C)(C)[C@H](O)/C=C/[C@@H]1[C@@H](C/C=C\CCCC(=O)OCC)[C@H](O)C[C@H]1O [Example 5, 16,16-dimethyl-PGF2β ethyl ester]	9.8 mmHg	1 h	6 h	0 mmHg	-2.0 mmHg	-3.5 mmHg	-7.3 mmHg	–	-7.3 mmHg	did not show initial elevation
–	CCCCC(C)(C)[C@H](O)/C=C/[C@@H]1[C@@H](C/C=C\CCCC(=O)OC(C)C)[C@H](O)C[C@H]1O [Example 4, 16,16-dimethyl-PGF2β isopropyl ester]	6.7 mmHg	1 h	6 h	0 mmHg	-5.0 mmHg	-5.0 mmHg	-12.3 mmHg	–	-9.6 mmHg	did not show initial elevation
–	CCCCC[C@H](O)CC[C@@H]1[C@@H](C/C=C\CCCC(=O)OCc2ccccc2)[C@H](O)C[C@H]1O [Example 1(b), 13,14-dihydro-PGF2β benzyl ester]	5.4 mmHg	–	–	–	–	–	–	–	–	–
–	CCCCC(C)(C)[C@H](O)/C=C/[C@@H]1[C@@H](C/C=C\CCCC(=O)OC(C)C)[C@@H](O)C[C@H]1O [Example 3, 16,16-dimethyl-PGF2α isopropyl ester]	4.7 mmHg	–	–	–	–	–	–	–	–	–
–	CCCCC[C@H](O)CC[C@@H]1[C@@H](C/C=C\CCCC(=O)OC2CCCCC2)[C@@H](O)C[C@H]1O [Compared compound 1, 13,14-dihydro-PGF2α cyclohexyl ester, reference compound]	–	4 h	–	0 mmHg	11.3 mmHg	2.3 mmHg	-5.6 mmHg	–	-9.3 mmHg	showed extremely strong initial elevation
–	CCCCC(C)(C)[C@H](O)CC[C@@H]1[C@@H](C/C=C\CCCC(=O)OC(C)C)[C@@H](O)C[C@H]1O [Example 2, 16,16-dimethyl-13,14-dihydro-PGF2α isopropyl ester]	4.0 mmHg	–	–	–	–	–	–	–	–	–
4 h	CCCCC(C)(C)[C@H](O)/C=C/[C@@H]1[C@@H](C/C=C\CCCC(=O)O)[C@@H](O)C[C@H]1O [Compared compound 2, 16,16-dimethyl-PGF2α, reference compound]	–	4 h	–	0 mmHg	4.5 mmHg	4.5 mmHg	-2.0 mmHg	–	-0.8 mmHg	showed initial elevation
